# Results from US20220257597A1, “Methods of Administering Elagolix” (AbbVie Inc., priority 2021, published 2022).
# “Also recorded” adds a separate entry of the source.
# Columns and labels:
# [1] = Drug-drug interaction study: effect of multiple doses of elagolix sodium on pharmacokinetics of bupropion (CYP2B6 substrate) and OH-bupropion
# Method: Subjects: Twenty four (24) adult premenopausal women in generally good health participated in this study.
# Elagolix 300 mg BID (as 300 mg immediate release tablets) was administered in the morning and evening on days 1 through 14 in period 2. […] No food was consumed for 2 hours prior to the evening doses of elagolix continuing through 2 hours after. The doses of elagolix were separated by approximately 12 hours.
# Individual PK parameters (peak concentration [Cmax] and area under the concentration-time curve [AUC]) were estimated using noncompartmental methods.
# Central value ratios (90% confidence intervals) for Cmax, AUC, and metabolite to parent ratios (MPRs) (day 11, period 2 vs. day 1, period 1) were calculated to assess the DDIs. Safety was evaluated through assessment of adverse events, vital signs, electrocardiogram, and clinical laboratory tests.
# Adverse events (AEs) were monitored throughout the DDI study. Additional safety evaluations included monitoring of physical examinations, vital signs, electrocardiogram variables, and clinical laboratory values were assessed
# [2] = tested on: CYP3A4; test: In vitro studies: CYP3A induction; type: in vitro ADME
# [3] = Embryofetal development study in the rat; type: in vivo
# Method: (§1) Embryofetal development studies were conducted in the rat and rabbit. Elagolix was administered by oral gavage to pregnant rats (25 animals/dose) at doses of 0, 300, 600 and 1200 mg/kg/day and to rabbits (20 animals/dose) at doses of 0, 100, 150, and 200 mg/kg/day, during the period of organogenesis (gestation day 6-17 in the rat and gestation day 7-20 in the rabbit).
# [4] = biological target: CYP2C19 (Homo sapiens, UniProt P33261); test: In vitro studies: CYP2C19 inhibition; type: in vitro ADME
# [5] = biological target: T1, rat gonadotropin-releasing hormone (GnRH) receptor (Rattus norvegicus, UniProt P30969); test: Binding to rat versus human GnRH receptor; details: rat vs human GnRH receptor
# T1 sequence (P30969 1-327): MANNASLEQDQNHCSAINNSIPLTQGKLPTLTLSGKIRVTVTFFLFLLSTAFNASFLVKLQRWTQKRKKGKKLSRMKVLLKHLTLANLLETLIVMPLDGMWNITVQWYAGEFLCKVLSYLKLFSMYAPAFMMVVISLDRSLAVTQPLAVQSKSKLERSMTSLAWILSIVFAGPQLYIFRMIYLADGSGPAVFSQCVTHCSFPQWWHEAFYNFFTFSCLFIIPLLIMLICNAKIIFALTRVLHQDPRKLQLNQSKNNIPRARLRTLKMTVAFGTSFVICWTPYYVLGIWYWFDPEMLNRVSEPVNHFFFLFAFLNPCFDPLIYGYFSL
# [6] = biological target: P-gp (Homo sapiens, UniProt P08183); test: Substrate of P-gp; type: in vitro ADME
# [7] = biological target: T2, OATP1B1 (Homo sapiens, UniProt Q9Y6L6); test: Substrate of OATP1B1; type: in vitro ADME
# T2 sequence (Q9Y6L6 1-691): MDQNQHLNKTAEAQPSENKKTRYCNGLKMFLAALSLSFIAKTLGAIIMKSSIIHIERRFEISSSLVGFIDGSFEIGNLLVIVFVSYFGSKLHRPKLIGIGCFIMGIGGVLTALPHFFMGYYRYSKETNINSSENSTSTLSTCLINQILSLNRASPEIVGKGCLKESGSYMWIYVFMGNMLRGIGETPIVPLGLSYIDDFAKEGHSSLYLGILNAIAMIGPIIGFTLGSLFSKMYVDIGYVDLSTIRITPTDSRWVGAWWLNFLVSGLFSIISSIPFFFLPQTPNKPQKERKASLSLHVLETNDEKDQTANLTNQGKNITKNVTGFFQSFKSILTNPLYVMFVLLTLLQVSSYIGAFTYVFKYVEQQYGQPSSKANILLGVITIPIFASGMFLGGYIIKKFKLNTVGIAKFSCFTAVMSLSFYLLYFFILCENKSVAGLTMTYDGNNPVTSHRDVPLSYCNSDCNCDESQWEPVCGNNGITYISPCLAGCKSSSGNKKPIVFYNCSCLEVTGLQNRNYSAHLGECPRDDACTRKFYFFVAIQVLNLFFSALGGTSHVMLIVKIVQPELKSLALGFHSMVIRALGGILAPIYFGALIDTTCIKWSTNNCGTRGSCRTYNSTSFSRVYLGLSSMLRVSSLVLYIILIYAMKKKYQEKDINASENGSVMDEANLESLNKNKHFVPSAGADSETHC
# [8] = Embryofetal development study in the rabbit
# Method: as §1
# [9] = Phase 1 open-label study: coadministration of combined oral contraceptive (EE+LNG) with elagolix sodium, pharmacokinetics, safety and tolerability; type: in vivo, human; details: healthy premenopausal female subjects
# Method: Objective: To evaluate the effect of elagolix on the pharmacokinetics, safety, and tolerability of a single dose of a combined oral contraceptive (COC) containing EE and LNG in healthy premenopausal female subjects. […] [table] […] Diagnosis and Main Criteria for Inclusion: Subjects were premenopausal females, and age was between 18 and 49 years, inclusive. Test Product, Dose/Strength/Concentration, and Mode of Administration: […] EE/LNG 0.02 mg/0.1 mg tablet; All study drugs were administered orally. Duration of Treatment: […] EE/LNG: 0.02 mg/0.1 mg on two separate occasions. Criteria for Evaluation: Pharmacokinetic: Cmax, Tmax, t1/2 and AUC. Safety: Vital signs, physical examinations, laboratory tests, and adverse events. […] The tabulation of the number of subjects with treatment-emergent adverse events also was provided with further breakdowns by severity rating and relationship to study drug.
# [10] = Elagolix apparent terminal phase elimination half-life; details: human, in vivo; read-out: apparent terminal phase elimination half-life (t1/2)
# [11] = biological target: efflux transporter P-glycoprotein (P-gp) (Homo sapiens, UniProt P08183); test: P-glycoprotein inhibition; type: in vitro ADME
# [12] = Pre- and postnatal development study in rats; type: in vivo, rat; details: for maternal plasma concentration relative to maximal elagolix concentration (Cmax) in humans at the MRHD: lactation day 21
# Method: In a pre- and postnatal development study in rats, elagolix was given in the diet to achieve doses of 0, 100 and 300 mg/kg/day (25 per dose group) from gestation day 6 to lactation day 20. […] Pup survival was decreased from birth to postnatal day 4. […] Smaller body size and effect on startle response were associated with lower pup weights at 300 mg/kg/day. Post-weaning growth, development and behavioral endpoints were unaffected.
# [13] = tested on: CYP3A; test: Substrate of / metabolism by CYP3A; type: in vitro ADME
# [14] = pregnant rabbits, 150 mg/kg/day
# Chain of CYP2C19 (P33261 whole entry): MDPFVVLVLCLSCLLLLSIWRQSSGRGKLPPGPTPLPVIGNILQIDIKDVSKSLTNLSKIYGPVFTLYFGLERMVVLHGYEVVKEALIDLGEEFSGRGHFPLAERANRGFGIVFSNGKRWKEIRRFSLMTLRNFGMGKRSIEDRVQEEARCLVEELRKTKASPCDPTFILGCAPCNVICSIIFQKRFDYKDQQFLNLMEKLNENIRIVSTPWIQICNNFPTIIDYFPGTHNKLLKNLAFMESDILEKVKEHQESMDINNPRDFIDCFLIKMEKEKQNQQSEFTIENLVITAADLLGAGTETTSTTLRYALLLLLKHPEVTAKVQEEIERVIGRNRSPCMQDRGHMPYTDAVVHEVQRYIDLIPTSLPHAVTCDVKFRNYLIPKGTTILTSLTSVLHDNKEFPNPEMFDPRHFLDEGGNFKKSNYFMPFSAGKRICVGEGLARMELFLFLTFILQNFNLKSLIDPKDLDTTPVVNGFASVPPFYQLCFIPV
# Chain of efflux transporter P-glycoprotein (P-gp) (P08183 whole entry): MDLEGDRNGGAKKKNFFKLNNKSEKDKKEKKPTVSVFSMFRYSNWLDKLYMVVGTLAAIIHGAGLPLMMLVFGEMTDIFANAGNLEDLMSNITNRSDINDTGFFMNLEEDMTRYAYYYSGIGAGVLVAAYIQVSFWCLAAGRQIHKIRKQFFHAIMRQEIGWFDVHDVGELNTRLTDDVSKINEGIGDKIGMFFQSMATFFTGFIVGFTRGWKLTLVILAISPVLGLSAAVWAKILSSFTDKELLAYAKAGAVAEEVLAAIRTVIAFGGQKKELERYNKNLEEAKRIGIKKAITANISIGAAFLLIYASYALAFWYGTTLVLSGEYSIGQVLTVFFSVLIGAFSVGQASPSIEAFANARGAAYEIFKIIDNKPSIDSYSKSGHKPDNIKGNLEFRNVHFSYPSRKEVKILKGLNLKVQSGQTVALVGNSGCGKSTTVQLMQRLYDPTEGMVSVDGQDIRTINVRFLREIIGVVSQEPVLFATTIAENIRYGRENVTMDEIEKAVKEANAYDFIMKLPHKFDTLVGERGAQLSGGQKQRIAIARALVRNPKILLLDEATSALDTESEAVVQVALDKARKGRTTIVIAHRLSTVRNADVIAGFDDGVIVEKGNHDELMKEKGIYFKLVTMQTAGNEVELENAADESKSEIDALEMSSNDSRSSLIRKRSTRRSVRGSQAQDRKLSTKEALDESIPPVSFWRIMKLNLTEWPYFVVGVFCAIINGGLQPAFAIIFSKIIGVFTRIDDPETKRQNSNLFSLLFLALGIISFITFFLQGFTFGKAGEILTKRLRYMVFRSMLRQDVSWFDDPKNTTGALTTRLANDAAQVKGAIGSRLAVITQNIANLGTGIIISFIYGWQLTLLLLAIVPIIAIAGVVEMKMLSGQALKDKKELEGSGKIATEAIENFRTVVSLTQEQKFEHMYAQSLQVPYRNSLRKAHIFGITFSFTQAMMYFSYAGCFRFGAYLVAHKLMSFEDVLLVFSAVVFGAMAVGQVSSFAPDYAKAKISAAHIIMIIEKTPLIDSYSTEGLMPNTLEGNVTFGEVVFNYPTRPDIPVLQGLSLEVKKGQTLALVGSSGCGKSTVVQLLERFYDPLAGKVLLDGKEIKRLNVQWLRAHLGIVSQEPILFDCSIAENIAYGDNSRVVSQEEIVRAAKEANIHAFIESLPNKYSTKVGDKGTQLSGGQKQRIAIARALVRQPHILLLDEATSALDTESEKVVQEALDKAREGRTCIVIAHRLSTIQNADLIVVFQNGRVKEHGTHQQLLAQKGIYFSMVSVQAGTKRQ
# Chain of P-gp (P08183 whole entry): as above
smiles,measurement,setting,value
"COc1cccc(-c2c(C)n(Cc3c(F)cccc3C(F)(F)F)c(=O)n(C[C@H](NCCCC(=O)O)c3ccccc3)c2=O)c1F [elagolix, 4-((R)-2-[5-(2-fluoro-3-methoxy-phenyl)-3-(2-fluoro-6-trifluoromethyl-benzyl)-4-methyl-2,6-dioxo-3,6-dihydro-2H-pyrimidin-1-yl]-1-phenyl-ethylamino)-butyric acid]",CYP2B6 induction in the healthy volunteer study,[1]; elagolix 300 mg BID for 10 days,did not induce CYP2B6
same,tolerability of co-administration of elagolix and bupropion,[1]; healthy premenopausal female subjects,generally well tolerated
same,inducer of CYP3A4 / cytochrome P450 (CYP) 3A,[2],weak to moderate inducer
same,"dose with increased post implantation losses, as multiple of the MRHD based on AUC","[3]; pregnant rats, mid dose group",12 times the MRHD
same,maternal deaths,"[3]; pregnant rats, oral gavage 300, 600 and 1200 mg/kg/day",six deaths
same,fetal malformations / structural abnormalities,"[3]; rat, any dose level tested",no structural abnormalities; also recorded: No fetal malformations
same,inhibitor of CYP2C19,[4],weak inhibitor
same,"binding to the rat GnRH receptor, fold less than to the human GnRH receptor",[5],~1000 fold
same,substrate of P-gp,[6],substrate
same,substrate of OATP1B1,[7],substrate
same,"highest, maternally toxic dose with spontaneous abortions and total litter loss, as multiple of the MRHD based on AUC",[8]; pregnant rabbits,7 times the MRHD
same,findings at lower non-maternally toxic dose,[8]; [14],A single total litter loss
same,"non-maternally toxic dose with total litter loss, as multiple of the MRHD",[8]; [14],4 times the MRHD
same,"findings at the highest, maternally toxic dose","[8]; pregnant rabbits, oral gavage, gestation day 7-20",three spontaneous abortions and a single total litter loss
same,fetal malformations / structural abnormalities,"[8]; rabbit, any dose level tested",no structural abnormalities; also recorded: No fetal malformations
same,tolerability of co-administration of elagolix and EE/LNG,[9],generally well tolerated
same,half-life,[10],4 to 6 h
same,inhibitor of efflux transporter P-glycoprotein (P-gp),[11],inhibitor
same,"post-weaning growth, development and behavioral endpoints",[12],unaffected
same,maternal plasma concentration relative to maximal elagolix concentration (Cmax) in humans at the MRHD,[12]; 100 mg/kg/day,0.04 fold
same,litter findings at the highest dose,[12]; 300 mg/kg/day,"two dams had total litter loss, and one failed to deliver"
same,maternal plasma concentration relative to maximal elagolix concentration (Cmax) in humans at the MRHD,[12]; 300 mg/kg/day,0.1 fold
same,pup birth weights and body weight gains,"[12]; 300 mg/kg/day, pre-weaning period",lower birth weights and lower body weight gains
same,pup survival from birth to postnatal day 4,[12]; highest dose,decreased
same,substrate of CYP3A,[13],substrate
